According to patent US11820745B2, “PKC-activating compounds for the treatment of neurodegenerative diseases” (Synaptogenix, Inc., priority 2008, dated 2023):
Like-named read-outs stand apart in the source and are kept apart here.

How the values were obtained:
PKCε = target: T1, PKCε (Homo sapiens, UniProt Q02156); test: Protein kinase C assay, purified/recombinant PKC epsilon (32P incorporation into histones); format: biochemical; conditions: for activation of purified PKCε / concentration needed to activate PKC, times lower than for BR-101 (DCP-LA): FIG. 3
T1 construct: purchased Calbiochem
T1 sequence (Q02156 1-737): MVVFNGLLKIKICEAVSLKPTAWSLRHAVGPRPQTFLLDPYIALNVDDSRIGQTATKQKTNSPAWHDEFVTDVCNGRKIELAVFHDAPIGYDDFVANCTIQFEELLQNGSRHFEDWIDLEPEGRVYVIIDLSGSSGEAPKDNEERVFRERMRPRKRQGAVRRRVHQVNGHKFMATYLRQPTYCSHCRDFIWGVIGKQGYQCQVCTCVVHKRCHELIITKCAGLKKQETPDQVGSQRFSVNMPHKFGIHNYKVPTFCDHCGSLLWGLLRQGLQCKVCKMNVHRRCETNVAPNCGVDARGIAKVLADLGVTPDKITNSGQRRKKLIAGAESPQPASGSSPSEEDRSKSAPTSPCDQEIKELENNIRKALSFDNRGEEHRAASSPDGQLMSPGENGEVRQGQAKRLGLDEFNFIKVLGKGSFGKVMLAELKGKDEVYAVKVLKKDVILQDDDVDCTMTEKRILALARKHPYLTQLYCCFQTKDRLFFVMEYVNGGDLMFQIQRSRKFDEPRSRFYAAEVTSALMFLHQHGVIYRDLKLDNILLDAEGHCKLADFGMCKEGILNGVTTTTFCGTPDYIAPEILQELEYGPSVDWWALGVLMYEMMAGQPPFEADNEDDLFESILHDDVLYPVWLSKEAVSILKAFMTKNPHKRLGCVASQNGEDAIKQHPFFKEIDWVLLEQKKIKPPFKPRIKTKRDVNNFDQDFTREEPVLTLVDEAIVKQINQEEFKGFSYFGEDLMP
Experimental: Protein kinase C assay. Recombinant PKC (1 ng of alpha or epsilon isofonn) was mixed with the BR-101 (UCP-LA) in the presence of 10 micromoiar histones, 5 mM CaCl2, 1.2 μg/μl phosphatidyl-L-serine, 0.18 μg/μl 1,2-dioctanoyl-sn-glycerol (DAG), […], […] (pH 7.4), 0.8 tnIVI EDTA, 4 mM EGTA, 4% glycerol, 8 μg/ml aprotinin, 8 μ/ml leupeptin, and 2 mM benzamidine. 0.5 micro Ci [^y32P]ATP was added. The incubation mixture was incubated for 15 min at 37 degrees in a total volume of 10 microliters. The reaction was stopped by spotting the reaction mixtures on 1×2 cm strips of cellulose phosphate paper (Whatman P81) and immediately washing twice for 1 hr in 0.5% H3PO4. The cellulose phosphate strips were counted in a scintillation counter. In some experiments, phosphatidylserine, diacylglycerol, and/or calcium were removed.
(§1) Protein kinase C assay. Rat hippocampal cells were cultured and scraped in 0.2 ml homogenization buffer (20 triM Tris-HCl, pH 7.4, 50 mM NaF, 1 μg/ml leupeptin, and 0.1 mM PMSF) and homogenized by sonication in a Marsonix micro-probe sonicator (5 see, 10W). To measure PKC, 10 ul of cell homogenate or purified. PKC isozyme (purchased from Calbiochem) was incubated for 15 min at 37° C. in the presence of 10 μM histones, 4.89 mM CaCl2, 1.2 μg/μl phosphatidyl-L-serine, 0.18 μg/μl 1,2-dioctanoyl-sn-glycerol, 10 mM MgCl2, 20 mM HEPES (pH 7.4), 0.8 mM EDTA, 4 mM EGTA, 4% glycerol, 8 μg/ml aprotinin, 8 μg/ml leupeptin, and 2 mM benzamidine. 0.5 μCi [^γ-32P]ATP was added and ^32P-phosphoprotein formation was measured by adsorption onto phosphocellulose as described previously. Nelson and Alkon, J. Neurochemistry. 1995; 65: 2350-57. For measurements of activation by BR-101 (DCP-LA) and similar compounds, PKC activity was measured in the absence of diacylglycerol and phosphatidyl serine, as described by Kanno et al., and PKC δ, ε, η, and μ were measured in the absence of added EGTA and CaCl2, as described by Kanno et al., J. Lipid Res. 2006; 47: 1146-50. Low concentrations of Ca^2+ are used because high Ca^2+ interacts with the PKC phosphatidylserine binding site and prevents activation. For measurements of bryostatin activation, 1,2-diacylglycerol was omitted unless otherwise stated.
To determine their PKC isozyme specificity, the new compounds were preincubated with purified PKC for five minutes and the PKC activity was measured radiometrically.

a-secretase = conditions: human fibroblasts, cited from earlier work
[1] = system: Endothelin-converting enzyme (ECE); test: ECE assay in SH-SY5Y neuroblastoma cells; format: cell-based, human; conditions: bryostatin 0.27 nM, BR-101 1 μM, BR-111 1 μM; FIG. 10
Experimental: ECE assay. SH-S757 neuroblastoma cells were incubated with bryostatin (0.27 nM), BR-101 (PCP-LA) (1 μM), and BR-111 (DHA-CP6) (1 μM). Endothelin-converting enzyme (ECE) was measured fluorimetrically using the method of Johnson and Ahn, Anal. Biochem. 2000; 286: 112-118. A sample of cell homogenate (20 μl) was incubated in 50 mM MES-KOH, pH 6.0, 0.01% C12E10 (polyoxyethylene-10-tauryl ether), and 15 μM McaBK2. (7-Methoxycournarin-4-acetyl [Ala7-(2,4-Dinitrophenyl)Lys9]-bradykinin trifluoroacetate salt) (Sigma-Aldrich). After 60 min at 37° C., the reaction was quenched by adding trifluoroacetic acid to 0.5%. The sample was diluted to 1.4 ml with water and the fluorescence was measured at ex=334 nm, em=398 nm.

PKC [2] = test: PKC activity time course in rat H19-7/IGF-IR hippocampal cells; format: cell-based
Experimental: (§2) Cell culture. Rat hippocampal H19-71GF-IR cells (ATCC, Manassas, Va.) were plated onto poly-L-lysine coated plates and grown at 35° C. in DMEM/10% FCS for several days until about 50% coverage was obtained. The cells were then induced to differentiate into a neuronal phenotype by replacing the medium with 5 ml N2 medium containing 10 ng/ml basic fibroblast growth factor at 39° C. and grown in T-75 flasks at 37° C. Human SH-SY5Y neuroblastoma cells (ATCC) were cultured in 45% F12K/45% MEM/10% FCS. Mouse N2A neuroblastoma cells were cultured in DMEM/10% FCS without glutamine. Rat hippocampal neurons from 18-day-old embryonic
as §1

rats = conditions: cited from earlier work
Aβ = Aβ levels in N2a neuroblastoma cells transfected with human APPSwe/PSID (Aβ1-42 ELISA); format: cell-based, mouse; conditions: 24 h incubation, various concentrations
Experimental: as §2
(§3) AB Measurement and Cell Viability Assay. Aβ was measured using an Aβ1-42 human fluorimetric ELISA kit (Invitrogen) according to the manufacturer's instructions. Results were measured in a Biotek Synergy HT microplate reader. AlamarBlue and CyQuant NF (Invitrogen) according to the manufacturer's instructions.
To measure the effects of PKCε activation on Aβ production, we used mouse neuro2a (N2a) neuroblastoma cells transfected with human APPSwe/PSID, which produce large quantities of Aβ. Petanceska et al., J Neurochem. 1996; 74: 1878-84. […] With bryostatin, which activates PKC by binding to the diacylglycerol-binding site, the inhibition was biphasic, with concentrations of 20 nM or higher producing no net effect. This may be explained by the ability of this class of PKC activators to downregulate PKC when used at high concentrations.

[3] = system: SH-SY5Y neuroblastoma cells; test: Cell survival and proliferation (alamar Blue, CyQuant) in SH-SY5Y neuroblastoma cells; format: cell-based, human; conditions: alamar Blue; FIG. 11a
Experimental: as §3

TACE [4] = test: TACE assay in rat primary neurons; format: cell-based; conditions: primary neurons from rat hippocampus; FIGS. 9b, c
Experimental: (§4) TACE Assay. TACE was measured by incubating 5 μl cell homogenate, 3 μl buffer (50 mM Tris-HCl 7.4 plus 25 mM NaCl plus 4% glycerol), and 1 of 100 μM TACE substrate IV (Aβz-LAQAVRSSSR-DPa) (Calbiochem) for 20 min at 37° in 1.5-ml polypropylene centrifuge tubes (Jin et al., Anal Biochem. 2002; 302: 269-75). The reaction was stopped by cooling to 4° C. The samples were diluted to 1 ml and the fluorescence was rapidly measured (ex=320 nm, em=420 nm) in a Spex Fluorolog 2 spectrofluorometer.

TACE [5] = test: TACE assay in N2a mouse neuroblastoma cells; format: cell-based; conditions: FIG. 9a
Experimental: as §4

PKC [6] = conditions: read-out: affinity for PKC, ECS50; cited from earlier work

CCCCCC1OC1C/C=C\CCCCCCCC(=O)OC (stereo in doubt) [BR-117, vernolic acid methyl ester]
effect on PKC (PKCε; FIG. 4): little or no effect

CCC1CC1CC1CC1CC1CC1CCCCCCCCO (stereo not drawn) [BR-104, linolenic alcohol tricyclopropane]
effect on PKC (PKCε; FIG. 4): little or no effect

CCCCCC1CC1CC1CC1CCCCCCCCO (stereo not drawn) [BR-105, linoleic alcohol dicyclopropane]
effect on PKC (PKCε; FIG. 4): little or no effect

CCCCC[C@H]1O[C@H]1CC1CC1CCCCCCCC(=O)OC (stereo partly drawn) [BR-109, vernolic acid methyl ester cyclopropane]
effect on PKCε (PKCε; at concentrations above 1 μM, FIG. 4): inhibited

CCC1CC1CC1CC1CC1CC1CC1CC1CC1CC1CCCC(=O)OC (stereo not drawn) [BR-114]
activation of purified PKCε (PKCε): activated purified PKCε to a similar extent
concentration needed to activate PKC, times lower than for BR-101 (DCP-LA) (PKCε): approx. 100 times

CCCCCC1CC1CC1CC1CC1CC1CC1CC1CCCC(=O)OC (stereo not drawn) [BR-115]
activation of purified PKCε (PKCε): activated purified PKCε to a similar extent
concentration needed to activate PKC, times lower than for BR-101 (DCP-LA) (PKCε): approx. 100 times

CCC/C=C/C=C/C(=O)O[C@H]1/C(=C/C(=O)OC)C[C@H]2C[C@H]([C@@H](C)O)OC(=O)C[C@H](O)C[C@@H]3C[C@H](OC(C)=O)C(C)(C)[C@](O)(C[C@@H]4C/C(=C/C(=O)OC)C[C@H](/C=C/C(C)(C)[C@]1(O)O2)O4)O3 [bryostatin]
increase in initial rate of a-secretase activity (a-secretase; 10 pM): 16 fold
increase in initial rate of a-secretase activity (a-secretase; 100 pM): 132 fold
ECE activity [1]: sustained increase
downregulation of PKC following activation (PKC [2]; 0.04 nM and 0.2 nM): 20%
time by which PKC downregulation returned to baseline (PKC [2]; 0.04 nM and 0.2 nM): ≤ 24 h
activation of PKC (PKC [2]; 0.04 nM and 0.2 nM, data not shown): 2 fold
PKC activity (downregulation) at 8 h (PKC [2]; data not shown): at or near the baseline
rate of learning (rats): dramatically increase the rate of learning
levels of intracellular Aβ (Aβ; FIG. 7a): markedly reduced
levels of secreted Aβ (Aβ; FIG. 7b): markedly reduced
effect on cell survival [3]: no effect
TACE activity (TACE [4]): small increases
TACE activity (TACE [5]): small increases

CCCCCCCCCCCCCC(=O)O[C@@H]1[C@@H](C)[C@@]2(O)[C@@H](C=C(CO)C[C@]3(O)C(=O)C(C)=C[C@@H]23)[C@@H]2C(C)(C)[C@]12OC(C)=O [phorbol 12-myristate 13-acetate]
PKC activity (downregulation) at 8 h (PKC [2]; data not shown): strongly downregulated

epoxystearic acid [BR-116]
effect on PKC (PKCε; FIG. 4): little or no effect
